Results published in patent publication US20080200442A1, “Compositions and Methods for Treating, Reducing, Ameliorating, or Preventing Infections of the Ear or Upper Respiratory Tract” (priority 2007, published 2008).
≈ marks a conversion by molar mass, not a printed value.

What was measured:
Format in all cases: cell-based
[1] = test system: Salmonella typhimurium (TD); assay: In vitro anti-bacterial activity (MIC90), Gram-negative reference strains
Procedure: Anti-bacterial activity of the compound having Formula III was tested against several Gram-negative reference bacteria strains and compared to the anti-bacterial activity of three commercially available antibiotics (nadifloxacin, ofloxacin, and sparfloxacin).

[2] = test system: Bacillis subtilis (ATCC 6633); assay: In vitro anti-bacterial activity (MIC90), Gram-positive reference strains
Procedure: (§1) Anti-bacterial activity of the compound having Formula III was tested against several Gram-negative reference bacteria strains and compared to the anti-bacterial activity of three commercially available antibiotics (nadifloxacin, ofloxacin, and sparfloxacin). The results are shown in Table 2 as MIC90 values (minimum concentration of the active compound required to inhibit ninety percent of the growth of a specified pathogen, in μg/ml). Anti-bacterial activity of the compound having Formula III was tested against several Gram-positive reference bacteria strains and compared to the anti-bacterial activity of three commercially available antibiotics (nadifloxacin, ofloxacin, and sparfloxacin).

[3] = test system: Sarcina lutea (ATCC 9341); assay: as above; details: Micrococcus luteus, ATCC9341
Procedure: as §1

[4] = test system: Staphylococcus aureus (ATCC 25933); assay: as above; details: ATCC25933
Procedure: as §1

[5] = test system: Staphylococcus aureus (FDA 209P); assay: as above; details: FDA209P
Procedure: as §1

[6] = test system: Staphylococcus aureus (Smith); assay: as above
Procedure: as §1

[7] = test system: Staphylococcus epidermidis (ATCC 12228); assay: as above; details: ATCC12228
Procedure: as §1

[8] = test system: Streptococcus faecalis (ATCC 29212); assay: as above; details: Enterococcus faecalis, ATCC29212
Procedure: as §1

[9] = test system: Streptococcus faecalis (IFO 12964); assay: as above; details: Enterococcus faecalis, IFO12964
Procedure: as §1

[10] = test system: Streptococcus pneniae (IID 554); assay: as above; details: IID554
Procedure: as §1

[11] = test system: Streptococcus pneumoniae (IID 553); assay: as above; details: IID553
Procedure: as §1

[12] = test system: Streptococcus pyogenes (Cook); assay: as above
Procedure: as §1

[13] = test system: Streptococcus pyogenes (IID 698); assay: as above; details: IID698
Procedure: as §1

[14] = test system: Staphylococcus aureus (ATCC 33591); assay: In vitro anti-bacterial activity (MIC90), methicillin-resistant Staphylococcus aureus isolates; details: ATCC33591; methicillin-resistant Staphylococcus aureus (ATCC 33591)
Procedure: (§2) Anti-bacterial activity of the compound having Formula III was tested against several Gram-negative reference bacteria strains and compared to the anti-bacterial activity of three commercially available antibiotics (nadifloxacin, ofloxacin, and sparfloxacin). The results are shown in Table 2 as MIC90 values (minimum concentration of the active compound required to inhibit ninety percent of the growth of a specified pathogen, in μg/ml).
(§3) Anti-bacterial activity of the compound having Formula III was tested against some methicillin-resistant Staphylococcus aureus bacteria strains and compared to the anti-bacterial activity of three commercially available antibiotics (nadifloxacin, ofloxacin, and sparfloxacin).

[15] = test system: Staphylococcus aureus (ATCC 33592); assay: as above; details: ATCC33592; methicillin-resistant Staphylococcus aureus (ATCC 33592)
Procedure: as §2, §3

[16] = test system: Staphylococcus aureus (ATCC 33593); assay: as above; details: ATCC33593; methicillin-resistant Staphylococcus aureus (ATCC 33593)
Procedure: as §2, §3

[17] = test system: Staphylococcus aureus (No. 395); assay: as above; details: methicillin-resistant Staphylococcus aureus (No. 395)
Procedure: as §2, §3

[18] = test system: Staphylococcus aureus (No. 415); assay: as above; details: methicillin-resistant Staphylococcus aureus (No. 415)
Procedure: as §2, §3

[19] = test system: Staphylococcus aureus (No. 419); assay: as above; details: methicillin-resistant Staphylococcus aureus (No. 419)
Procedure: as §2, §3

[20] = test system: Staphylococcus aureus (No. 420); assay: as above; details: methicillin-resistant Staphylococcus aureus (No. 420)
Procedure: as §2, §3

[21] = test system: Staphylococcus aureus (No. 421); assay: as above; details: methicillin-resistant Staphylococcus aureus (No. 421)
Procedure: as §2, §3

[22] = test system: Clostridium perfringens (KZ 210); assay: microbe, parasite or virus in culture
[23] = test system: Peptostreptococcus micros (GIFU 7824); assay: In vitro anti-bacterial activity (MIC90), anaerobic reference bacteria; details: Parvimonas micra
[24] = test system: Peptostreptococcus magnum (GAI 0664); assay: as above
[25] = test system: Propionibacterium acnes (GAI 5419); assay: as above; details: Cutibacterium acnes
[26] = test system: Propionibacterium acnes (ATCC 6919); assay: as above; details: Cutibacterium acnes, ATCC6919
[27] = test system: Propionibacterium acnes (ATCC 11828); assay: as above; details: Cutibacterium acnes, ATCC11828
[28] = test system: Bacteroides fragillis (GAI 0675); assay: as above
[29] = test system: Bacteroides thetaiotaomicron (GAI 0659); assay: as above; details: Bacteroides thetaiotaomicron
[30] = test system: Bacteroides vulgatus (GAI 0673); assay: as above; details: Phocaeicola vulgatus
[31] = test system: Veillonella parvula (GAI 5602); assay: as above
[32] = test system: Moraxella species; assay: In vitro anti-bacterial activity (MIC90), ophthalmologic clinical bacteria isolates; details: Gram-negative
[33] = test system: Pseudomonas aeruginosa; assay: as above; details: Gram-negative
[34] = test system: Haemophilus influenzae; assay: as above; details: Gram-negative
[35] = test system: Staphylococcus aureus; assay: as above; details: Gram-positive
[36] = test system: Coagulase-negative Staphylococcus; assay: as above; details: Gram-positive
[37] = test system: Streptococcus pneumoniae; assay: as above; details: Gram-positive
[38] = test system: Corynebacterium species; assay: as above; details: Gram-positive
[39] = test system: Propionibacterium acnes; assay: as above; details: Cutibacterium acnes, Gram-positive
[40] = test system: Ofloxacin-resistant Staphylococcus aureus; assay: as above
[41] = test system: Gentamycin-resistant Staphylococcus aureus; assay: as above
[42] = test system: Gentamycin-resistant Pseudomonas aeruginosa; assay: as above
[43] = test system: Penicillin-resistant Streptococcus pneumoniae; assay: as above

`CC1COc2c(N3CCN(C)CC3)c(F)cc3c(=O)c(C(=O)O)cn1c23` (stereo not shown) [Ofloxacin] showed an MIC90 [1] of 0.05 mμg/mL, an MIC90 [2] of 0.05 µg/mL (≈ 0.138 µM) and an MIC90 [3] of 3.13 µg/mL (≈ 8.66 µM). It also gave an MIC90 [4] of 0.39 µg/mL (≈ 1.08 µM), an MIC90 [5] of 0.2 µg/mL (≈ 0.553 µM) and an MIC90 [6] of 0.2 µg/mL (≈ 0.553 µM). The MIC90 [7] was 0.78 µg/mL (≈ 2.16 µM), the MIC90 [8] was 1.56 µg/mL (≈ 4.32 µM) and the MIC90 [9] was 1.56 µg/mL (≈ 4.32 µM). The MIC90 [10] was 1.56 µg/mL (≈ 4.32 µM), the MIC90 [11] was 1.56 µg/mL (≈ 4.32 µM) and the MIC90 [12] was 0.78 µg/mL (≈ 2.16 µM). It also gave an MIC90 [13] of 0.39 µg/mL (≈ 1.08 µM), an MIC90 [14] of 0.05 µg/mL (≈ 0.138 µM) and an MIC90 [15] of 0.39 µg/mL (≈ 1.08 µM). The MIC90 [16] was 0.2 µg/mL (≈ 0.553 µM), the MIC90 [17] was 0.2 µg/mL (≈ 0.553 µM) and the MIC90 [18] was 0.78 µg/mL (≈ 2.16 µM). For the same compound, the MIC90 [19] was 3.13 µg/mL (≈ 8.66 µM), the MIC90 [20] was 1.56 µg/mL (≈ 4.32 µM) and the MIC90 [21] was 1.56 µg/mL (≈ 4.32 µM). It also gave an MIC90 [22] of 0.78 µg/mL (≈ 2.16 µM), an MIC90 [23] of 0.78 µg/mL (≈ 2.16 µM) and an MIC90 [24] of 0.39 µg/mL (≈ 1.08 µM). For the same compound, the MIC90 [25] was 0.78 µg/mL (≈ 2.16 µM), the MIC90 [26] was 0.78 µg/mL (≈ 2.16 µM) and the MIC90 [27] was 1.56 µg/mL (≈ 4.32 µM). It also gave an MIC90 [28] of 1.56 µg/mL (≈ 4.32 µM), an MIC90 [29] of 3.13 µg/mL (≈ 8.66 µM) and an MIC90 [30] of 3.13 µg/mL (≈ 8.66 µM). For the same compound, the MIC90 [31] was 0.39 µg/mL (≈ 1.08 µM), the MIC90 [32] was 0.13 µg/mL (≈ 0.36 µM) and the MIC90 [33] was 4 µg/mL (≈ 11.1 µM). For the same compound, the MIC90 [34] was at most 0.06 µg/mL, the MIC90 [35] was 32 µg/mL (≈ 88.6 µM) and the MIC90 [36] was 8 µg/mL (≈ 22.1 µM). For the same compound, the MIC90 [37] was 2 µg/mL (≈ 5.53 µM), the MIC90 [38] was 32 µg/mL (≈ 88.6 µM) and the MIC90 [39] was 1 µg/mL (≈ 2.77 µM). It also gave an MIC90 [40] of over 128 µg/mL, an MIC90 [41] of 128 µg/mL (≈ 354 µM) and an MIC90 [42] of 64 µg/mL (≈ 177 µM). For the same compound, the MIC90 [43] was 2 µg/mL (≈ 5.53 µM).
